From US10774096B2, “4-substituted benzoxaborole compounds and uses thereof” (GLAXOSMITHKLINE INTELLECTUAL PROPERTY (NO.2) LIMITED, priority 2015, dated 2020)
Converted amounts (≈) assume the structure as drawn. “And” between values parts separate entries of the source, which are not always exact repeats. Equal values may be shown once. Where a name gives a salt, the structure may show the parent alone. Read-outs that look alike come from different tables or passages of the source.

What was measured:
[1] = tested on: HepG2 cells; experiment: HepG2 cytotoxicity assay (resazurin, 48 h); format: cell-based, human
Protocol: HepG2 cells (HB-8065) were fed fresh medium (Essential Minimum Eagle Medium, EMEM, supplemented with 5% fetal calf serum and 2 mM L-glutamine) the day before subculturing the plates. On the day of plate seeding, a cell suspension of 100,000 cells/mL in culture medium was prepared. Cell suspension (100 uL) was added in each well of a black 96-well microplate with clear bottom, collagen coated, (Becton Dickinson) except in column 11, that was dispensed only 100 uL of culture medium. The plates were incubated for 24 h. It was made up a range of 10 doses of test substances by preparing serial dilutions 1:2 from the stock solution in 100% DMSO and made a dilution of 1:200 of each dose in medium, to achieve a final concentration of 0.5% of DMSO. After 24 h, culture medium was removed from the plate and 150 uL of test compound dilutions were added in two replicates and 150 uL of 0.5% DMSO in culture medium to columns 11 and 12 (blank control). Plates were incubated for 48 and at 37° C., 5% CO2, 95% relative humidity. The medium was then removed and 200 uL of fresh culture medium was added and 50 uL of Resazurin solution to each well and incubated for 1 h and a half. Plates were removed from incubator to allow the fluorescence to stabilise at room temperature protected from light for 15 min. For read out of viability of cells we used Resazurine (BDH). Resazurin is used as an oxidation-reduction indicator that yields a colorimetric change and a fluorescent signal in response to metabolic activity. As cell grows, metabolic activity results in a chemical reduction of Resazurin indicated by a change from non-fluorescent blue to the reduced fluorescent pink form. The degree of Resazurin fluorescence is therefore, an indicator of the number of viable cells in the culture system. Fluorescence was measured at an excitation wavelength of 515 nm and an emission wavelength of 590 nm in a Microplate reader 1420 Multilabel HTS counter, Victor 2, (Wallac).
The fluorescence value of each well is corrected by subtracting the background value (average of column 11) from the absolute value. The percentages of inhibition are calculated relatively to the DMSO control wells (average of column 12). For each compound, the average value of the duplicate samples is calculated and the curve is fitted to Sigmoidal dose-response (variable slope) nonlinear regression curve adjustment (GraphPad) in order to calculate the IC50 (Tox50).

[2] = tested on: E. coli K12; experiment: General antimicrobial activity assay (CLSI broth microdilution), MIC; format: cell-based
Protocol: (§1) Whole-cell antimicrobial activity was determined by broth microdilution using the Clinical and Laboratory Standards Institute (CLSI) recommended procedure, Document M7-A7, “Methods for Dilution Susceptibility Tests for Bacteria that Grow Aerobically”.
(§2) Table 1 provides MIC values against bacterial strains K12; E. coli K12 tolC/Tn10; A. baumannii ATCC 17978; and P. aeruginosa PA01 for comparator compounds (C1-C15) shown in Table 4 and for G26-CH3. […] Similarly, compound G26-CH3 (Example 2) has poor activity against these Gram negative bacteria.

[3] = tested on: P. aeruginosa PA01; experiment: as above; format: cell-based
Protocol: as §1, §2

[4] = tested on: A. baumannii ATCC 17978; experiment: as above; format: cell-based
Protocol: as §1, §2

[5] = tested on: Mtb H37Rv; experiment: MIC determination against mycobacteria (resazurin); format: cell-based, M. tuberculosis; conditions: for Selectivity Index (A/B): HepG2 Tox50 (A) / Mtb H37Rv MIC (B); for MIC: Mycobacterium tuberculosis, read-out: Mtb H37Rv MIC (B)
[6] = molecular target: Mtb LeuRS (Mycobacterium tuberculosis, UniProt P9WFV1); experiment: LeuRS aminoacylation assay, IC50 determination; format: biochemical, M. tuberculosis
Mtb LeuRS, sequence (P9WFV1 whole entry): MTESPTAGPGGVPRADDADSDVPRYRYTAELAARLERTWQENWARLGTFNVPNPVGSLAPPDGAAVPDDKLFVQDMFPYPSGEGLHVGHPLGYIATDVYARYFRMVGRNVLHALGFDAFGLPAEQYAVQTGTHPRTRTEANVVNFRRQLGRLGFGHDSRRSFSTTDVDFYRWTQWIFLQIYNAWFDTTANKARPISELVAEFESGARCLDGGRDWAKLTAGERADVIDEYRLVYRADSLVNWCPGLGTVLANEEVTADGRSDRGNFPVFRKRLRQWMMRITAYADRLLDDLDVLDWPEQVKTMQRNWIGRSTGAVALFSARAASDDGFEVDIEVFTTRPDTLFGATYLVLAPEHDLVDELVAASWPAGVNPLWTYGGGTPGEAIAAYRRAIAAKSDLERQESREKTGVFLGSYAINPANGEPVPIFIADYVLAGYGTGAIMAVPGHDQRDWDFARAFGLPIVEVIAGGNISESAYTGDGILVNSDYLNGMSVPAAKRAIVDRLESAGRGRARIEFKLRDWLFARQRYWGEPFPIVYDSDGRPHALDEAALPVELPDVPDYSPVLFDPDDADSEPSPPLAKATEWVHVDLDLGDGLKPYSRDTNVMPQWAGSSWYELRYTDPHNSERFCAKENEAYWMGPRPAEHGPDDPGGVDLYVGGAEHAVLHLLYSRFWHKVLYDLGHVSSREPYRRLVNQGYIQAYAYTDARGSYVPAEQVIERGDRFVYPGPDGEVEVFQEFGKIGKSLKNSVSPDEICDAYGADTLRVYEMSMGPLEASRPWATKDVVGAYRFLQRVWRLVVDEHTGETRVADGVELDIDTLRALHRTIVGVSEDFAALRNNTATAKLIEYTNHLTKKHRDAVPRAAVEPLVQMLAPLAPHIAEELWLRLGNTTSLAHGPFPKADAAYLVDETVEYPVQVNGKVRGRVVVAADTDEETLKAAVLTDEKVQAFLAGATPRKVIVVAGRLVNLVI
Protocol: For biochemical analyses an N-terminal six histidine-tagged LeuRS was over-expressed in Escherichia coli which were E. coli codon-optimised (GenScript, Piscataway N.J., USA), from human mitochondria and cytoplasm, and M. tuberculosis. N-terminal six histidine-tagged LeuRS proteins were over-expressed and purified according to Novagen (Madison, Wis., USA) using an E. coli BL21(DE3) T7 RNA polymerase over-expression strain.
Experiments were performed in 96-well microtiter plates, using 80 μL reaction mixtures containing 50 mM HEPES-KOH (pH 8.0), 30 mM MgCl2 30 mM KCl, 13 μM L-[^14C]leucine (306 mCi/mmol, Perkin-Elmer), 15 uM total E. coli tRNA (Roche, Switzerland), 0.02% (w/v) BSA, 1 mM DTT, 0.2 μM LeuRS and 4 mM ATP at 30° C. Reactions were started by the addition of 4 mM ATP. After 7 minutes, reactions were quenched and tRNA was precipitated by the addition of 50 μL of 10% (w/v) TCA and transferred to 96-well nitrocellulose membrane filter plates (Millipore Multiscreen HTS, MSHAN4B50). Each well was then washed three times with 100 μL of 5% TCA. Filter plates were then dried under a heat lamp and the precipitated L-[^14C]leucine tRNALeu were quantified by liquid scintillation counting using a Wallac MicroBeta Trilux model 1450 liquid scintillation counter (PerkinElmer, Waltham, Mass., USA). The only difference was with the human cytoplasmic LeuRS when we used tRNA isolated from Brewer's Yeast (Roche Diagnostics GmbH).
Reactions were initiated by the addition of 4 mM ATP. Reactions were stopped after 7 minutes then precipitated and counted to quantify radioactivity. IC50 values were determined using the Graphpad Prism software package (Graphpad Software Inc. (La Jolla, Calif., USA).

[7] = molecular target: Human cyto LeuRS (Homo sapiens, UniProt Q9P2J5); experiment: LeuRS aminoacylation assay, IC50 determination; format: biochemical; conditions: tRNA from Brewer's Yeast
Human cyto LeuRS, sequence (Q9P2J5 whole entry): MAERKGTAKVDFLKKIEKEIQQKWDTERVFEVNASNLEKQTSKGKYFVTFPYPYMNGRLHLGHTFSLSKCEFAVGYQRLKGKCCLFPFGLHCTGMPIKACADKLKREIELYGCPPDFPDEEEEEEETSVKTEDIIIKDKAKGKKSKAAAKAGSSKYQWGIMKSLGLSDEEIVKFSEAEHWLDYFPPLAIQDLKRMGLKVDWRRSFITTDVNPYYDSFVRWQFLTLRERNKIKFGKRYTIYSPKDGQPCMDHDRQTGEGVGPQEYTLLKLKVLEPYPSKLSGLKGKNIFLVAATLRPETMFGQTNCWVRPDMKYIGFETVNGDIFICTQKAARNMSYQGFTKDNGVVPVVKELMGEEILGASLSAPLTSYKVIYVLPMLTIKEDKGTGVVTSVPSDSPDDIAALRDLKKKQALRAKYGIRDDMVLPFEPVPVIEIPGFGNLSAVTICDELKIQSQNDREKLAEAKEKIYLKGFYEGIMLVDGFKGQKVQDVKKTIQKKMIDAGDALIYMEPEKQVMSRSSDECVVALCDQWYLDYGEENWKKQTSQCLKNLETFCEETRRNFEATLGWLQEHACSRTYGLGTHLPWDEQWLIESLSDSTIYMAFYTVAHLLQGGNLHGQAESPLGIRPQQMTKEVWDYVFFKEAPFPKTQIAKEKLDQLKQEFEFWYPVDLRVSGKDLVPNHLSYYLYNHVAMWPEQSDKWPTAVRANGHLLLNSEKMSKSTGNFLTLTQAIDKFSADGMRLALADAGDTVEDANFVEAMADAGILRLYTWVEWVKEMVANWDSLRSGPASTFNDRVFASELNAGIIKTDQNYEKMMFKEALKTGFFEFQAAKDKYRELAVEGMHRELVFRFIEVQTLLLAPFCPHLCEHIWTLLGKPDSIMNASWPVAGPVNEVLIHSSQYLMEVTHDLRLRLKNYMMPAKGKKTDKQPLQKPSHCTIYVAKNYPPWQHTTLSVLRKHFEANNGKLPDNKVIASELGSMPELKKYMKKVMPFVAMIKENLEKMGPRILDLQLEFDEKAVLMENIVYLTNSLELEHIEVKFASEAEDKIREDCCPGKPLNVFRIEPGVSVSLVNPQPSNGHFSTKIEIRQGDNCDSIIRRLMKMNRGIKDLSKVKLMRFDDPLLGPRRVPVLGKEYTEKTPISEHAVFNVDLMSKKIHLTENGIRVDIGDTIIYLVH

[8] = tested on: S. pneumoniae ATCC 6301; experiment: General antimicrobial activity assay (CLSI broth microdilution), MIC; format: cell-based
Protocol: as §1

[9] = tested on: mammalian cellular protein synthesis; experiment: Inhibition of protein synthesis in mammalian cells; format: cell-based
[10] = tested on: pathogenic Gram negative bacteria; experiment: General antimicrobial activity assay, summary in words for the panel; format: cell-based
Protocol: as §1, §2

[11] = tested on: S. aureus ATCC 29213; experiment: General antimicrobial activity assay (CLSI broth microdilution), MIC; format: cell-based; design: unit not given beside the values
Protocol: as §1

[12] = tested on: E. coli K12 tolC::Tn10; experiment: as above; format: cell-based; conditions: efflux pump deficient E. coli
Protocol: as §1, §2

[13] = M. tuberculosis standard strain H37Rv

Structure (SMILES): CC1(C)COc2cccc3c2B(OC3CN)O1 (centres unmarked) [Example C12-H]
- HepG2 cell 48 h Tox50 (A) ([1]; human): 24.5 µM
- MIC: E. coli K12 [2]: 4 µg/mL (≈ 17.2 µM)
- MIC: P. aeruginosa PA01 [3]: 16 µg/mL (≈ 68.6 µM)
- MIC: A. baumannii ATCC 17978 [4]: 4 µg/mL (≈ 17.2 µM)

Structure (SMILES): NC[C@H]1OB2OCCOc3c(Cl)ccc1c32 [Example C13-Cl]
- HepG2 cell 48 h Tox50 (A) ([1]; human): >50 µM
- Selectivity Index (A/B) [5]: >10
- MIC ([5]; H37RV): 5 µM (≈ 1.2 µg/mL)
- IC50 ([6]; read-out: Mtb LeuRS IC50): 2.16 µM

Structure (SMILES): NCC1OB2OCCOc3cccc1c32 (racemic) [Example C2-H]
- HepG2 cell 48 h Tox50 (A) ([1]; human): >50 µM
- MIC ([5]; H37RV): 1.88 µM (≈ 0.385 µg/mL)
- MIC: E. coli K12 [2]: 2 µg/mL (≈ 9.76 µM)
- MIC: P. aeruginosa PA01 [3]: 2 µg/mL (≈ 9.76 µM)
- MIC: A. baumannii ATCC 17978 [4]: 2 µg/mL (≈ 9.76 µM)

Structure (SMILES): NCCOc1cccc2c1B(O)OC2 [Example C3-H]
- HepG2 cell 48 h Tox50 (A) [1]: >50 µM
- Selectivity Index (A/B) [5]: >0.8
- MIC [5, 13]: 62 µM (≈ 12 µg/mL)

Structure (SMILES): CCOc1ccc(Br)c2c1B(O)O[C@@H]2CN [Example C4-Br]
- IC50 [7]: 73 µM and 67 µM
- HepG2 cell 48 h Tox50 (A) [1]: 32 µM
- Selectivity Index (A/B) [5]: 320
- MIC [5, 13]: 0.1 µM (≈ 0.0286 µg/mL)

Structure (SMILES): NC[C@H]1OB2OCCOc3c(Cl)cc(Cl)c1c32 [Example C14-Cl2]
- HepG2 cell 48 h Tox50 (A) ([1]; human): >50 µM
- Selectivity Index (A/B) [5]: >10

Structure (SMILES): NC[C@H]1OB2OCCOc3ccc(-c4ccccc4)c1c32 [Example 3, (S)-(3-phenyl-7,8-dihydro-2H-1,6,9-trioxa-9a-borabenzo[cd]azulen-2-yl)methanamine hydrochloride]
- MIC ([5]; H37RV): 8.75 µM
- IC50 ([6]; read-out: Mtb LeuRS IC50): 12 µM

Structure (SMILES): NC[C@H]1OB2OCCOc3ccc(-c4cccs4)c1c32 [Example 4, (S)-(3-(thiophen-2-yl)-7,8-dihydro-2H-1,6,9-trioxa-9a-borabenzo[cd]azulen-2-yl)methanamine]
- MIC ([5]; H37RV): 40.1 µM (≈ 11.5 µg/mL)
- IC50 ([6]; read-out: Mtb LeuRS IC50): 300 µM

Structure (SMILES): c1cc2c3c(c1)OCCOB3OC2 [Example C1-H]
- MIC [5, 13]: 31 µM (≈ 5.46 µg/mL)

Structure (SMILES): CC1(C)COc2c(Cl)ccc3c2B(OC3CN)O1 (centres unmarked) [Example C8-Cl]
- HepG2 cell 48 h Tox50 (A) ([1]; human): >50 µM
- Selectivity Index (A/B) [5]: 10

Structure (SMILES): CC1COc2c(Cl)cc(Cl)c3c2B(O1)OC3CN (centres unmarked) [Example C7-Cl2]
- HepG2 cell 48 h Tox50 (A) ([1]; human): >50 µM
- Selectivity Index (A/B) [5]: >20
- MIC ([5]; H37RV): 2.5 µM (≈ 0.72 µg/mL)

Structure (SMILES): CC1(C)COB2OC(CN)c3c(Cl)ccc(c32)O1 (centres unmarked) [Example C9-Cl]
- HepG2 cell 48 h Tox50 (A) ([1]; human): >50 µM
- Selectivity Index (A/B) [5]: >10
- Selectivity Index (A/B) ([5]; listed as C9-CI): 10
- MIC ([5]; H37RV): 5 µM (≈ 1.34 µg/mL)

Structure (SMILES): CCOc1cccc2c1B(O)O[C@@H]2CN [Example C5-H]
- HepG2 cell 48 h Tox50 (A) [1]: 1.8 µM
- Selectivity Index (A/B) [5]: 3
- MIC [5, 13]: 0.6 µM (≈ 0.124 µg/mL)

Structure (SMILES): Cc1ccc2c3c1[C@@H](CN)OB3OCCO2 [Example 2, (S)-(3-methyl-7,8-dihydro-2H-1,6,9-trioxa-9a-borabenzo[cd]azulen-2-yl)methanamine]
- IC50 [7]: 171 µM
- HepG2 cell 48 h Tox50 (A) ([1]; human): 971 µM
- Selectivity Index (A/B) ([5]; listed as Example 2 G26-CH3): 4853 and > 4850
- MIC ([5]; H37RV): 0.2 µM (≈ 0.0438 µg/mL)
- MIC: S. pneumoniae ATCC 6301 [8]: >64
- impact on mammalian cellular protein synthesis [9]: low impact
- IC50 ([9]; mammalian cells, read-out: Cell Prot Syn IC50): > 600 µM
- IC50 [6]: 0.53 µM
- activity against leucyl tRNA synthetase from M. tuberculosis [6]: good activity
- activity against Gram negative bacteria [10]: poor activity
- MIC S. aureus ATCC 29213 [11]: >64
- MIC: E. coli K12 [2]: >64 µg/mL
- MIC: E. coli K12 tolC::Tn10 [12]: >64 µg/mL
- MIC: P. aeruginosa PA01 [3]: >64 µg/mL
- MIC: A. baumannii ATCC 17978 [4]: >64 µg/mL

Structure (SMILES): CC1COc2cccc3c2B(O1)OC3CN (centres unmarked) [Example C11-H]
- HepG2 cell 48 h Tox50 (A) ([1]; human): > 50 µM
- HepG2 cell 48 h, percentage in brackets beside Tox50 ([1]; meaning of bracket not explained): 40%
- MIC ([5]; H37RV): 1.56 µM (≈ 0.342 µg/mL)
- MIC: E. coli K12 [2]: 2 µg/mL (≈ 9.13 µM)
- MIC: P. aeruginosa PA01 [3]: 2 µg/mL (≈ 9.13 µM)
- MIC: A. baumannii ATCC 17978 [4]: 4 µg/mL (≈ 18.3 µM)

Structure (SMILES): CCOc1ccc(Cl)c2c1B(O)O[C@@H]2CN [Example C6-Cl]
- HepG2 cell 48 h Tox50 (A) [1]: 36.3 µM
- Selectivity Index (A/B) [5]: 363
- MIC [5, 13]: 0.1 µM (≈ 0.0241 µg/mL)

Structure (SMILES): CC1(C)COB2OC(CN)c3cccc(c32)O1 (centres unmarked) [Example C10-H]
- HepG2 cell 48 h Tox50 (A) ([1]; human): >50 µM
- Selectivity Index (A/B) [5]: 10
